Laboratory results reported in patent US5126258A (priority 1988, dated 1992).

Columns and labels:
7E5 = experiment: Hydrolysis of reactant ligands by receptor 7E5; type: biochemical, mouse; parameters: key to hydrolysis by 7E5, symbol: --: No hydrolysis observed; conditions: pH 8.0; for hydrolysis by 7E5, symbol: 19: 2/5 uM, 21: 5/10 uM receptor/ligand
Procedure: (§1) ^1 Preliminary initial hydrolyses shown as the percentage of admixed
(§2) reactant ligand consumed for catalyzed and spontaneous hydrolyses. "--" =
(§3) No hydrolysis observed. "NT" = Not tried. All reactions were carried out
(§4) at pH 8.0 in a 50 mM phosphate buffer unless otherwise noted. Hydrolytic
(§5) percentages were determined by HPLC using a Hitachi model 655A12 liquid
(§6) chromatograph with a C18 Vydac 201TP54 column, except as noted below.
(§7) Mixtures of acetonitrile a nd water containing 0.1 percent trichloroaceti
(§8) acid [28:72-50:50 (v/v)] were used as elutant. Hydrolyses of Compounds 5
(§9) and 20 were assayed using fluorescence data.
(§10) ^2 Concentrations of receptor molecules (Rec.) and reactant ligands
(§11) (Lig.) in micromolar units, presuming a molecular weight of 150,000
(§12) daltons for each receptor molecule.
(§13) ^3 Reactant ligand (Lig.) used as substrate.
(§14) ^4 Time in hours that the reaction was permitted to take place.
(§15) ^5 Spontaneous hydrolytic percentages for the time period indicated.
(§16) ^6 Reaction carried out at pH 7.2 in a 50 mM phosphate buffer.

21G2 = experiment: Hydrolysis of reactant ligands by receptor 21G2; type: biochemical, mouse; parameters: key to hydrolysis by 21G2, symbol: --: No hydrolysis observed; conditions: pH 8.0; for hydrolysis by 21G2, symbol: 19: 2/5 uM, 21: 5/10 uM receptor/ligand
Procedure: as §1, §2, §3, §4, §5, §6, §7, §8, §9, §10, §11, §12, §13, §14, §15, §16

[1] = test system: eight monoclonal receptors 21G2, 7E5, 37G2, 13E10, 12C9, 44A2, 17G8 and 22F5; experiment: Catalyzed hydrolysis of reactant ligands by the eight QPN1 monoclonal receptors, summary; type: biochemical, mouse; conditions: pH 8.0
Procedure: Mice were hyperimmunized with the Compound 13-KLH conjugate over a three to four week time period. Sera were assayed in an ELISA using a Compound 13-BSA conjugate bound to microtiter plate wells as the solid-phase antigen. Cloned hybridomas were also screened using that ELISA assay.
Each of those catalyses could be inhibited by an appropriate analog-ligand. Thus, a relatively high percentage of induced monoclonal receptors was capable of catalyzing an esterolytic reaction. The reason for this relatively high percentage of useful receptors being induced is unknown, but could be due to the presence of phosphonamidate group nitrogen atom, as compared to a phosphonate oxygen atom, or to the quinoline nucleus of the analog-ligand. Those eight catalytic monoclonal receptors and the hybridomas that secrete them are identified by the laboratory designations "QPN1 7E5", "QPN1 12C9", "QPN1 13E10", "QPN1 17G8", "QPN1 21G2", "QPN1 22F5", "QPN1 37G2" and QPN1 44A2. The prefix "QPNI" is sometimes omitted herein when discussing these hybridomas and receptors.
Amide cleavage for Compounds 14 and 15 was assayed by analyzing for the production of free aminoquinaldine or aminonaphthalene by measuring the increase in the azo dye that results from derivatizing the free aminoquinaldine or aminonapthalene with a diazotization reagent.
Catalysis reactions were conducted by preparing a reaction admixture of 100 microliters (ul) total volume containing 5 micromolar (uM) monoclonal antibody, 50-75 uM amide reactant ligand substrate and a buffer described hereinafter. The buffer included in the above admixture varied depending upon the pH utilized as follows: pH 5, 10 […] sodium acetate, 10 mM sodium chloride; pH 7.2, 10 mM sodium phosphate, 0.15 molar (M) sodium chloride; pH 8.0; 50 mM sodium phosphate. The amide-containing substrates screened in this assay were added to the above admixture in 1 ul of a 100-fold concentrated stock solution of dimethyl formamide (DMF). Monoclonal antibody was added to the above admixture from a concentrated stock solution. The resulting admixture was placed into the well of a 96 well flat bottom microtiter plate (Costar, Cambridge, Mass.) and maintained in a moist vapor environment chamber at 23 degrees C. The production of aminoquinaldine or aminonaphthalene was then assayed as described below after 2,3,5, or 6 days.
The aminoquinaldine or aminonapthalene product produced by the catalyzed reaction was measured by first admixing 20 ul of 5M HCl, 80 ul acetone and 10 ul 0.5% (w/v) sodium nitrite to the reaction admixture to form a second admixture and maintaining that second admixture for 3 minutes at room temperature. Thereafter, 10 ul 2.5% (w/v) ammonium sulfamate was added to form a third admixture that was maintained for 2 minutes at room temperature. A still further 10 ul of 0.5% (w/v) N-(1-napthyl)ethylenediamine dihydrochloride was added to form a fourth admixture that was then maintained for 15 minutes at room temperature. Thereafter the resulting azo dye present in the fourth admixture was measured by absorbance spectroscopy at 540 nanometers (nm) for aminoquinaldine using a Model EL 309 Automated Microplate Reader (Bio-Tek Instruments, Winooski, Vt.).

22F5 = experiment: Hydrolysis of reactant ligands by receptor 22F5; type: biochemical, mouse; parameters: key to hydrolysis by 22F5, symbol: --: No hydrolysis observed; conditions: pH 8.0; for hydrolysis by 22F5, symbol: 19: 2/5 uM, 21: 5/10 uM receptor/ligand
Procedure: as §1, §2, §3, §4, §5, §6, §7, §8, §9, §10, §11, §12, §13, §14, §15, §16

1209 = experiment: Hydrolysis of reactant ligands by receptor 12C9 (column head prints 1209); type: biochemical, mouse; parameters: key to hydrolysis by 1209, symbol: --: No hydrolysis observed; conditions: pH 8.0; for hydrolysis by 1209, symbol: 19: 2/5 uM, 21: 5/10 uM receptor/ligand
Procedure: as §1, §2, §3, §4, §5, §6, §7, §8, §9, §10, §11, §12, §13, §14, §15, §16

13E10 = experiment: Hydrolysis of reactant ligands by receptor 13E10; type: biochemical, mouse; parameters: key to hydrolysis by 13E10, symbol: --: No hydrolysis observed; conditions: pH 8.0; for hydrolysis by 13E10, symbol: 19: 2/5 uM, 21: 5/10 uM receptor/ligand
Procedure: as §1, §2, §3, §4, §5, §6, §7, §8, §9, §10, §11, §12, §13, §14, §15, §16

[2] = Spontaneous (uncatalyzed, background) hydrolysis; type: physicochemical; parameters: key to Spon. (spontaneous hydrolysis), symbol: --: No hydrolysis observed; conditions: for Spon. (spontaneous hydrolysis), symbol: pH 8.0
Procedure: The practical range of pH for the assay is limited by the rapid spontaneous rate of hydrolysis of an ester Compound 5 above pH 8.0. Initially, the ester was used at a concentration that was about four-fold greater than that of the protein, and the mixture was incubated at pH 7.2 for 10 minutes. Any change in fluorescence above background was noted.
The lack of spectroscopic distinction between such esters and their hydrolysis products recommended a chromatographic analysis of the process. Referring to FIG. 3, a mixture of Compound 7 (5 uM) and the monoclonal antibody from hybridoma P3 6D4 (0.1 uM) in phosphate buffer (50 mM, pH 8.0) was analyzed over time by high performance liquid chromatography (HPLC). The accelerated hydrolysis of the ester was apparent from the decrease of its peak and the concurrent increase in two new peaks that correspond with the expected products. Under these conditions, the ester is completely consumed in 60-80 minutes during which time the background rate accounts for about 12 to 16 percent hydrolysis. The chromatographic profile is the same as that produced by treatment with hog liver esterase.
^c The rate constants were determined spectrophotometrically (at 245
nm) by measuring initial rates at five concentrations of ester.
as §1, §2, §3, §4, §5, §6, §7, §8, §9, §15
(§17) Reaction kinetics were studied using three reactant ligands as substrates for monoclonal receptors 37G2 and 22F5. Data from initial rates were consistent with Michaelis-Menten reaction mechanism for a usual enzyme-substrate system. Initial rates were followed using at 271 nm using a U.V.-visible spectorphotometer for Compound 17, and a fluorescence spectrometer for Compounds 5 and 20, using an excitation wavelength of 355 nm and an emission wavelength of 455 nm for both compounds.

44A2 = experiment: Hydrolysis of reactant ligands by receptor 44A2; type: biochemical, mouse; parameters: key to hydrolysis by 44A2, symbol: --: No hydrolysis observed; conditions: pH 8.0; for hydrolysis by 44A2, symbol: 19: 2/5 uM, 21: 5/10 uM receptor/ligand
Procedure: as §1, §2, §3, §4, §5, §6, §7, §8, §9, §10, §11, §12, §13, §14, §15, §16

17G8 = experiment: Hydrolysis of reactant ligands by receptor 17G8; type: biochemical, mouse; parameters: key to hydrolysis by 17G8, symbol: --: No hydrolysis observed; conditions: pH 8.0; for hydrolysis by 17G8, symbol: 19: 2/5 uM, 21: 5/10 uM receptor/ligand
Procedure: as §1, §2, §3, §4, §5, §6, §7, §8, §9, §10, §11, §12, §13, §14, §15, §16

37G2 = experiment: Hydrolysis of reactant ligands by receptor 37G2; type: biochemical, mouse; parameters: key to hydrolysis by 37G2, symbol: --: No hydrolysis observed; conditions: pH 8.0; for hydrolysis by 37G2, symbol: 19: 2/5 uM, 21: 5/10 uM receptor/ligand
Procedure: as §1, §2, §3, §4, §5, §6, §7, §8, §9, §10, §11, §12, §13, §14, §15, §16

Monoclonal Receptor 22F5 = experiment: Kinetics of hydrolysis by receptor 22F5; type: biochemical, mouse
From the text: as §17
Lineweaver-Burke plots for the catalyzed hydrolysis of Compounds 17, 5 and 20 obtained in the presence and absence of Compound 12i as inhibitor were prepared as discussed for FIG. 4. In particular, Compound 17 was present at concentrations of 1-16 uM with inhibitor concentrations of 100 and 300 nanomolar (nM). Compound 5 was present at concentrations of 1-10 uM with inhibitor concentrations of 100 and 200 nM. Compound 20 was present at concentrations of 2-20 uM with inhibitor concentrations of 25 and 100 nM.
*Fluorescence assays using Compounds 20 and 5 were carried out in a
PerkinElmer fluorescence spectrophotometer (moded LS5; Oakbrook, IL) usin
200 nanomolar receptor (based on a molecular weight of 150,000 daltons) i
50 mM phosphate buffer at a pH value of 8.0. The reactant ligand was
dissolved in dioxane and admixed in the amounts discussed above. Two
milliliters of reaction solution were utilized as was a dioxane
concentration of 2 percent by volume. […]

[3] = receptor/ligand uM, time h: 17 1/10, 2, 18 2/10, 24, 20 2/10, 0.33, 5 1/5, 0.33, 22 5/10, 3.5, preliminary

receptors (of eight) that catalyzed hydrolysis of the compound [1] | hydrolysis by 7E5, symbol (7E5) | hydrolysis by 21G2, symbol (21G2) | hydrolysis by 22F5, symbol (22F5) | hydrolysis by 1209, symbol 1209 | hydrolysis by 13E10, symbol (13E10) | hydrolysis by 44A2, symbol (44A2) | hydrolysis by 17G8, symbol (17G8) | hydrolysis by 37G2, symbol (37G2) | SMILES | Spon. (spontaneous hydrolysis), symbol [2] | other results
Only those same five receptors |  |  |  |  |  |  |  |  | CC(=O)Nc1ccc(CC(=O)Oc2ccc3c(C)cc(=O)oc3c2)cc1 [Compound 20] |  | hydrolysis by 7E5 (7E5; [3]): 15 percentage of reactant ligand; hydrolysis by 21G2 (21G2; [3]): 36 percentage of reactant ligand; hydrolysis by 22F5 (22F5; [3]): 48 percentage of reactant ligand; hydrolysis by 1209 1209; [3]: 16 percentage of reactant ligand; hydrolysis by 13E10 (13E10; [3]): 16 percentage of reactant ligand; Spon. (spontaneous hydrolysis) ([2]; pH 8.0, 50 mM phosphate, time (h): 17 2, 18 24, 20 0.33, 5 0.33, 22 3.5): 14 percentage of reactant ligand; hydrolysis by 44A2 (44A2; [3]): 33 percentage of reactant ligand; hydrolysis by 17G8 (17G8; receptor/ligand uM, time h: 18 2/10, 24, 20 2/10, 0.33, 5 1/5, 0.33, 22 5/10, 3.5, preliminary): 20 percentage of reactant ligand; hydrolysis by 37G2 (37G2; [3]): 39 percentage of reactant ligand; Km (Monoclonal Receptor 22F5; 50 mM phosphate pH 8.0, 200 nM receptor, 2% dioxane, figure = Km × 10^6): 5 µM; kcat (Monoclonal Receptor 22F5; pH 8.0): 0.023 s⁻¹; Vmax (Monoclonal Receptor 22F5; pH 8.0, 200 nM receptor, figure = Vmax × 10^9): 0.27 µM/min
lack of hydrolysis | -- | -- | -- | -- | -- | -- | -- | -- | CC(=O)Nc1ccc(CC(=O)Oc2ccccc2NC(C)=O)cc1 [Compound 21] | -- | 

SMILES | receptors (of eight) that catalyzed hydrolysis of the compound [1] | hydrolysis by 7E5, symbol (7E5) | hydrolysis by 21G2, symbol (21G2) | hydrolysis by 22F5, symbol (22F5) | hydrolysis by 1209, symbol 1209 | hydrolysis by 13E10, symbol (13E10) | hydrolysis by 44A2, symbol (44A2) | hydrolysis by 17G8, symbol (17G8) | hydrolysis by 37G2, symbol (37G2) | Spon. (spontaneous hydrolysis), symbol [2] | other results
CC(=O)Nc1ccc(CC(=O)Nc2cccc3ccccc23)cc1 [Compound 15] | none of the receptors catalyzed hydrolysis | -- | -- | -- | -- | -- | -- | -- | -- | -- | 
